PubChem BioAssay (NCI)
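Step 1: Grow cells in 96-well plates. Step 2: Expose to compound for 48 hours at 5 concentrations. Step 3: Interpolate endpoints linearly; if unreached, use highest concentration. GI50: concentration for 50% inhibition of growth. Definition used: TGI = concentration required for complete inhibition of growth.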

Experiments:
Assay in all cases: growth of human tumour cells (NCI), 48 h; in the data active = GI50 below about 0.43 µM; inactive = the rest
A498 renal = system: A498 renal
ACHN renal = system: ACHN renal
CCRF-CEM leukemia = system: CCRF-CEM leukemia
HCT-15 colon = system: HCT-15 colon
HT29 colon = system: HT29 colon
KM12 colon = system: KM12 colon
RPMI-8226 leukemia = system: RPMI-8226 leukemia
SF-268 CNS = system: SF-268 CNS
SN12C renal = system: SN12C renal
TK-10 renal = system: TK-10 renal

O=C(O)c1cc2ccccc2c(Cc2c(O)c(C(=O)O)cc3ccccc23)c1O
> 100 µM: TGI (A498 renal) | TGI (ACHN renal) | TGI (CCRF-CEM leukemia) | TGI (HCT-15 colon) | TGI (HT29 colon) | TGI (KM12 colon) | TGI (RPMI-8226 leukemia) | TGI (SF-268 CNS) | TGI (SN12C renal) | TGI (TK-10 renal)

O=C(Nc1ccccc1)c1cc2ccccc2c(N=Nc2cccc([N+](=O)[O-])c2)c1O
> 100 µM: TGI (A498 renal) | TGI (ACHN renal) | TGI (CCRF-CEM leukemia) | TGI (HCT-15 colon) | TGI (HT29 colon) | TGI (KM12 colon) | TGI (SF-268 CNS) | TGI (SN12C renal) | TGI (TK-10 renal)

COc1cccc(N/C(C)=C2/CCOC2=O)c1
> 10 µM: TGI (A498 renal) | TGI (ACHN renal) | TGI (CCRF-CEM leukemia) | TGI (HCT-15 colon) | TGI (HT29 colon) | TGI (KM12 colon) | TGI (RPMI-8226 leukemia) | TGI (SF-268 CNS) | TGI (SN12C renal) | TGI (TK-10 renal)

C=C1CC[C@@]2(C)[C@@H]([C@@H]1C)[C@H]1CC[C@@H]3[C@@]4(C)CC[C@H](O)C(C)(C)[C@@H]4CC[C@@]3(C)[C@]1(C)C[C@@H]2O
4.35 µM: TGI (A498 renal)
4.44 µM: TGI (ACHN renal)
11.2 µM: TGI (HCT-15 colon)
9.76 µM: TGI (SF-268 CNS)
15.8 µM: TGI (KM12 colon)
> 100 µM: TGI (CCRF-CEM leukemia) | TGI (RPMI-8226 leukemia) | TGI (SN12C renal)
19.6 µM: TGI (HT29 colon)
27 µM: TGI (TK-10 renal)

O=C([CH-]C(=O)c1ccccc1)c1ccccc1.[C-]#[O+].[C-]#[O+].[Ir]
inactive: GI50 (HCT-15 colon) 42.6 µM | GI50 (HT29 colon) 63.5 µM | GI50 (KM12 colon) 66.1 µM | GI50 (SN12C renal) 48.3 µM | GI50 (TK-10 renal) > 100 µM
> 100 µM: TGI (HCT-15 colon) | TGI (HT29 colon) | TGI (KM12 colon) | TGI (SN12C renal) | TGI (TK-10 renal)

CC1(CO)C(O)CCC2(C)C1CCC1CC3CC12CCC3(O)CO (stereo not drawn)
99 µM: TGI (A498 renal)
> 100 µM: TGI (CCRF-CEM leukemia) | TGI (HCT-15 colon) | TGI (HT29 colon) | TGI (KM12 colon) | TGI (RPMI-8226 leukemia) | TGI (SF-268 CNS) | TGI (SN12C renal)

COc1ccc(CN(CCN(C)C)c2ccccn2)cc1 (tested in a mixture with another compound)
> 100 µM: TGI (A498 renal) | TGI (ACHN renal) | TGI (CCRF-CEM leukemia) | TGI (HCT-15 colon) | TGI (HT29 colon) | TGI (KM12 colon) | TGI (SF-268 CNS) | TGI (SN12C renal) | TGI (TK-10 renal)

Cc1cc(N(CCC#N)S(=O)(=O)c2ccccc2)ccc1C=Nc1cccc(C(=O)O)c1
> 100 µM: TGI (ACHN renal) | TGI (CCRF-CEM leukemia) | TGI (HCT-15 colon) | TGI (HT29 colon) | TGI (RPMI-8226 leukemia) | TGI (SF-268 CNS) | TGI (SN12C renal) | TGI (TK-10 renal)

C1=N[C@]23C(=N[C@H](N=C2NCc2ccco2)[C@]24N=CNC2=N[C@H]3N=C4NCc2ccco2)N1
inactive: GI50 (A498 renal) 5.8 µM | GI50 (ACHN renal) > 100 µM | GI50 (CCRF-CEM leukemia) > 100 µM | GI50 (HCT-15 colon) > 100 µM | GI50 (HT29 colon) > 100 µM | GI50 (KM12 colon) > 100 µM | GI50 (RPMI-8226 leukemia) > 100 µM | GI50 (SF-268 CNS) > 100 µM | GI50 (SN12C renal) > 100 µM | GI50 (TK-10 renal) > 100 µM
> 100 µM: TGI (A498 renal) | TGI (ACHN renal) | TGI (CCRF-CEM leukemia) | TGI (HCT-15 colon) | TGI (HT29 colon) | TGI (KM12 colon) | TGI (RPMI-8226 leukemia) | TGI (SF-268 CNS) | TGI (SN12C renal) | TGI (TK-10 renal)

O=C(NN1C(=O)C(Cl)C1c1cccc(O)c1)c1ccccc1O (stereo not drawn)
> 100 µM: TGI (A498 renal) | TGI (ACHN renal) | TGI (CCRF-CEM leukemia) | TGI (HCT-15 colon) | TGI (HT29 colon) | TGI (KM12 colon) | TGI (SF-268 CNS) | TGI (SN12C renal) | TGI (TK-10 renal)
